Source: patent publication US4018801A, “Substituted oxirane compounds” (The Dow Chemical Company, priority 1975, dated 1977)

Experiments:
Assay in all cases: Pre-emergent control of seed germination, soil drench
Format in all cases: in vivo
Cultured Rice = details: Table IV
From the text: (§1) Four parts by weight of the compound, 0.08 part of sorbitan trioleate (Span 85), and 0.02 part of a sorbitan monooleate polyoxyethylene derivative (Tween 80) are dipersed in 40 milliliters of acetone to produce a concentrate composition in the form of a water-dispersible liquid containing the predetermined oxirane compound as the sole active agent.
(§2) A portion of each of these concentrate compositions were separately dispersed in portions of water to provide aqueous compositions, containing 0.44 pound of the oxirane compound per 100 gallons of ultimate aqueous mixture.
(§3) The aqueous compositions were then employed for the treatment of seed beds of good agricultural soil which had been prepared and seeded with the seeds of various grass species and broadleaf plants. The grass species included white winter wheat, cultured rice, pigweeds, crabgrass, cheat grass, wild oats, Johnson grass, barnyard grass and yellow foxtail; and the broadleaf plants included corn. In the treating operations, a predetermined quantity of each of the compositions was applied to separate seedbeds as a soil drench at a rate of about 0.43 acre inch of aqueous composition per acre. The quantities were controlled to supply a substantial uniform dosage in a seedbed equivalent to 1.0, 2.0 and 5.0 pounds of the oxirane compound per acre. These dosages correspond, respectively, to a concentration, within the soil depth penetrated of about 1.6, 3.2 and 8.0 parts by weight of the oxirane compound per million parts by weight of soil. Other seedbeds were similarly seeded with the named plant species but were left untreated to serve as checks.
(§4) After about 2 weeks the seedbeds were examined to ascertain what control of the growth of seeds had been obtained.
(§5) An aqueous composition containing 2-(α,α,α -trifluoro-m-tolyl)-2-(2,2,2-trichloroethyl)oxirane was prepared as described in Example 32. The composition was then employed according to the procedures of Example 32 except that lower concentrations of the oxirane compound were employed in the composition.
(§6) The percent control of the various plant species at the employed dosage rate of the 2-(α,α,α-trifluoro-m-tolyl)- 2-(2,2,2-trichloroethyl) supplied by the composition is set forth in the following Table IV.

White Winter Wheat = details: Table IV
From the text: as §1, §2, §3, §4, §5, §6

Beans = details: Table IV
From the text: as §1, §2, §3, §4, §5, §6

Yellow Foxtail = details: Table IV, Yellow Foxtail
From the text: as §1, §2, §3, §4
(§7) were prepared as in Example 32 and similarly employed for the pre-emergencetreatment of various plant species.
as §5, §6

Barnyard Grass = details: Table IV, Barnyard Grass
From the text: as §1, §2, §3, §4, §7, §5, §6

Wild Oats = details: Table IV, Wild Oats
From the text: as §1, §2, §3, §4, §7, §5, §6

Pigweeds = details: Table IV, Pigweeds
From the text: as §1, §2, §3, §4, §7, §5, §6

Johnson Grass = details: Table IV, Johnson Grass
From the text: as §1, §2, §3, §4, §7
(§8) Separate aqueous compositions containing the 2-(m-chlorophenyl)-2-(2,2,2-trichloroethyl)oxirane (Cmpd. A) and 2-(m-bromophenyl)-2-(2,2,2-trichloroethyl)oxirane (Cmpd. C) compounds of the present invention were prepared as in Example 32 for comparative per-emergence herbicide tests against noxious grass species with the known 2 -(p-chlorophenyl)-2-(2,2,2-trichloroethyl)oxirane (Cmpd. B) compound and 2-(p-bromophenyl)-2-(2,2,2-trichloroethyl)oxirane (Cmpd. D). The pre-emergence tests were conducted in Example 32 and the results of such tests are set forth below in Table III.
as §5, §6

Crabgrass = details: Table IV, Crabgrass
From the text: as §1, §2, §3, §4, §7, §8, §5, §6

Soybeans = details: Table IV
Cotton = details: Table IV
From the text: as §1, §2, §3, §4, §8, §5, §6

Corn = details: Table IV
From the text: as §1, §2, §3
After about 2 weeks the seedbeds were examined to ascertain what control of the growth of seeds had been obtained. […]
as §5, §6

FC(F)(F)c1cccc(C2(CC(Cl)(Cl)Cl)CO2)c1 (stereo not drawn) [Example 4, 2-(α,α,α -trifluoro-m-tolyl)-2-(2,2,2-trichloroethyl)oxirane]
Percent Pre-Emergent Control of Seed Germination (Cultured Rice; 0.03 pounds): 0% | Percent Pre-Emergent Control of Seed Germination (Cultured Rice; 0.07 pounds): 30% | Percent Pre-Emergent Control of Seed Germination (Cultured Rice; 0.13 pounds): 100% | Percent Pre-Emergent Control of Seed Germination (Cultured Rice; 0.25 pounds): 100% | Percent Pre-Emergent Control of Seed Germination (Cultured Rice; 0.5 pounds): 100% | Percent Pre-Emergent Control of Seed Germination (Cultured Rice; 1.0 pounds): 100% | Percent Pre-Emergent Control of Seed Germination (White Winter Wheat; 0.03 pounds): 0% | Percent Pre-Emergent Control of Seed Germination (White Winter Wheat; 0.07 pounds): 50% | Percent Pre-Emergent Control of Seed Germination (White Winter Wheat; 0.13 pounds): 100% | Percent Pre-Emergent Control of Seed Germination (White Winter Wheat; 0.25 pounds): 100% | Percent Pre-Emergent Control of Seed Germination (White Winter Wheat; 0.5 pounds): 100% | Percent Pre-Emergent Control of Seed Germination (White Winter Wheat; 1.0 pounds): 100% | Percent Pre-Emergent Control of Seed Germination (Beans; 0.03 pounds): 30% | Percent Pre-Emergent Control of Seed Germination (Beans; 0.07 pounds): 30% | Percent Pre-Emergent Control of Seed Germination (Beans; 0.13 pounds): 30% | Percent Pre-Emergent Control of Seed Germination (Beans; 0.25 pounds): 60% | Percent Pre-Emergent Control of Seed Germination (Beans; 0.5 pounds): 70% | Percent Pre-Emergent Control of Seed Germination (Beans; 1.0 pounds): 95% | Percent Pre-Emergent Control of Seed Germination (Yellow Foxtail; 0.03 pounds): 30% | Percent Pre-Emergent Control of Seed Germination (Yellow Foxtail; 0.07 pounds): 0% | Percent Pre-Emergent Control of Seed Germination (Yellow Foxtail; 0.13 pounds): 95% | Percent Pre-Emergent Control of Seed Germination (Yellow Foxtail; 0.25 pounds): 100% | Percent Pre-Emergent Control of Seed Germination (Yellow Foxtail; 0.5 pounds): 100% | Percent Pre-Emergent Control of Seed Germination (Yellow Foxtail; 1.0 pounds): 100% | Percent Pre-Emergent Control of Seed Germination (Barnyard Grass; 0.03 pounds): 50% | Percent Pre-Emergent Control of Seed Germination (Barnyard Grass; 0.07 pounds): 95% | Percent Pre-Emergent Control of Seed Germination (Barnyard Grass; 0.13 pounds): 95% | Percent Pre-Emergent Control of Seed Germination (Barnyard Grass; 0.25 pounds): 95% | Percent Pre-Emergent Control of Seed Germination (Barnyard Grass; 0.5 pounds): 95% | Percent Pre-Emergent Control of Seed Germination (Barnyard Grass; 1.0 pounds): 95% | Percent Pre-Emergent Control of Seed Germination (Wild Oats; 0.03 pounds): 30% | Percent Pre-Emergent Control of Seed Germination (Wild Oats; 0.07 pounds): 85% | Percent Pre-Emergent Control of Seed Germination (Wild Oats; 0.13 pounds): 95% | Percent Pre-Emergent Control of Seed Germination (Wild Oats; 0.25 pounds): 95% | Percent Pre-Emergent Control of Seed Germination (Wild Oats; 0.5 pounds): 95% | Percent Pre-Emergent Control of Seed Germination (Wild Oats; 1.0 pounds): 95% | Percent Pre-Emergent Control of Seed Germination (Pigweeds; 0.03 pounds): 0% | Percent Pre-Emergent Control of Seed Germination (Pigweeds; 0.07 pounds): 30% | Percent Pre-Emergent Control of Seed Germination (Pigweeds; 0.13 pounds): 50% | Percent Pre-Emergent Control of Seed Germination (Pigweeds; 0.25 pounds): 100% | Percent Pre-Emergent Control of Seed Germination (Pigweeds; 0.5 pounds): 100% | Percent Pre-Emergent Control of Seed Germination (Pigweeds; 1.0 pounds): 100% | Percent Pre-Emergent Control of Seed Germination (Johnson Grass; 0.03 pounds): 0% | Percent Pre-Emergent Control of Seed Germination (Johnson Grass; 0.07 pounds): 80% | Percent Pre-Emergent Control of Seed Germination (Johnson Grass; 0.13 pounds): 100% | Percent Pre-Emergent Control of Seed Germination (Johnson Grass; 0.25 pounds): 100% | Percent Pre-Emergent Control of Seed Germination (Johnson Grass; 0.5 pounds): 100% | Percent Pre-Emergent Control of Seed Germination (Johnson Grass; 1.0 pounds): 100% | Percent Pre-Emergent Control of Seed Germination (Crabgrass; 0.03 pounds): 60% | Percent Pre-Emergent Control of Seed Germination (Crabgrass; 0.07 pounds): 75% | Percent Pre-Emergent Control of Seed Germination (Crabgrass; 0.13 pounds): 100% | Percent Pre-Emergent Control of Seed Germination (Crabgrass; 0.25 pounds): 100% | Percent Pre-Emergent Control of Seed Germination (Crabgrass; 0.5 pounds): 100% | Percent Pre-Emergent Control of Seed Germination (Crabgrass; 1.0 pounds): 100% | Percent Pre-Emergent Control of Seed Germination (Soybeans; 0.03 pounds): 0% | Percent Pre-Emergent Control of Seed Germination (Soybeans; 0.07 pounds): 0% | Percent Pre-Emergent Control of Seed Germination (Soybeans; 0.13 pounds): 100% | Percent Pre-Emergent Control of Seed Germination (Soybeans; 0.25 pounds): 40% | Percent Pre-Emergent Control of Seed Germination (Soybeans; 0.5 pounds): 50% | Percent Pre-Emergent Control of Seed Germination (Soybeans; 1.0 pounds): 60% | Percent Pre-Emergent Control of Seed Germination (Cotton; 0.03 pounds): 0% | Percent Pre-Emergent Control of Seed Germination (Cotton; 0.07 pounds): 0% | Percent Pre-Emergent Control of Seed Germination (Cotton; 0.13 pounds): 0% | Percent Pre-Emergent Control of Seed Germination (Cotton; 0.25 pounds): 0% | Percent Pre-Emergent Control of Seed Germination (Cotton; 0.5 pounds): 30% | Percent Pre-Emergent Control of Seed Germination (Cotton; 1.0 pounds): 20% | Percent Pre-Emergent Control of Seed Germination (Corn; 0.03 pounds): 0% | Percent Pre-Emergent Control of Seed Germination (Corn; 0.07 pounds): 0% | Percent Pre-Emergent Control of Seed Germination (Corn; 0.13 pounds): 0% | Percent Pre-Emergent Control of Seed Germination (Corn; 0.25 pounds): 90% | Percent Pre-Emergent Control of Seed Germination (Corn; 0.5 pounds): 95% | Percent Pre-Emergent Control of Seed Germination (Corn; 1.0 pounds): 95%
